This note sets out measurements from ChEMBL document CHEMBL1130708, “Cytotoxic cycloartane-type triterpenes from Combretum quadrangulare” (1998).

pEC50: −log10 of the molar value.

A short description of this test: Compound was tested for cytotoxic activity against murine colon 26-L5 carcinoma cells. The class given is functional. The conditions noted are these: Mus musculus; read-out: ED50 (the source's name).
As to `COC(=O)[C@]1(C)[C@@H](O)C[C@H](O)[C@]23C[C@]24CC[C@]2(C)[C@@H]([C@H](C=O)C/C=C/C(C)(C)O)CC[C@@]2(C)[C@@H]4CC[C@@H]13`, the pEC50 is 4.36. Turning to `C=C(CC[C@@H](C)[C@H]1CC[C@@]2(C)[C@@H]3CC[C@H]4[C@](C)(C(=O)O)[C@@H](O)C[C@H](OC(C)=O)[C@@]45C[C@@]35CC[C@]12C)C(C)C`, the pEC50 was 4.24. For `C=C(C)[C@@H]1CC[C@H]([C@H]2CC[C@@]3(C)[C@@H]4CC[C@H]5[C@](C)(C(=O)OC)[C@@H](O)C[C@H](O)[C@@]56C[C@@]46CC[C@]23C)[C@@H](OC)O1`, the pEC50 is 4.74. Next, `C=C(CC[C@@H](C)[C@H]1CC[C@@]2(C)[C@@H]3CC[C@H]4[C@](C)(C(=O)O)[C@@H](O)C[C@H](O)[C@@]45C[C@@]35CC[C@]12C)C(C)C`: 4.30; `C=C(CC[C@@H](C)[C@H]1CC[C@@]2(C)[C@@H]3CC[C@H]4[C@](C)(C(=O)OC)[C@@H](OC(C)=O)C[C@@H]5O[C@H](C[C@]12C)[C@]31C[C@]541)C(C)C`: 4.11; `C=C(CC[C@@H](C)[C@H]1CC[C@@]2(C)[C@@H]3CC[C@H]4[C@](C)(C(=O)O)[C@@H](O)CC[C@@]45C[C@@]35CC[C@]12C)C(C)C`: 4.20. Consider `COC(=O)[C@]1(C)[C@@H](O)C[C@H](O)[C@]23C[C@]24CC[C@]2(C)[C@@H]([C@H](C=O)C/C=C/C(C)(C)OO)CC[C@@]2(C)[C@@H]4CC[C@@H]13`, for which the pEC50 was 5.02. Next, `C=C(CC[C@@H](C)[C@H]1CC[C@@]2(C)[C@@H]3CC[C@H]4[C@](C)(C(=O)O)[C@@H](O)CC(=O)[C@@]45C[C@@]35CC[C@]12C)C(C)C`: 4.23; `C=C(CC[C@@H](C)[C@H]1CC[C@@]2(C)[C@@H]3CC[C@H]4[C@](C)(C(=O)O)[C@@H](OC(C)=O)C[C@H](OC(C)=O)[C@@]45C[C@@]35CC[C@]12C)C(C)C`: 4.28; `C=C(CC[C@@H](C)[C@H]1CC[C@@]2(C)[C@@H]3CC[C@H]4[C@](C)(C(=O)OC)[C@@H](O)C[C@@H]5O[C@H](C[C@]12C)[C@]31C[C@]541)C(C)C`: 5.27.
